We go through twelve compounds from paper PMC3968008 (PLoS ONE, 2014).

Data set [1] concerns interleukin-8 (IL-8) mRNA in NHDFs. As to the kind of experiment: IL-8 mRNA expression, real-time RT-PCR. The data set is classed as cell-based, human. The note with it: Wortmannin 100 nM, SR-0379 10 μg/ml. The method, then:
Expression of the human IL-8 mRNA was measured using real-time reverse transcription polymerase chain reaction (RT-PCR). Total RNA was extracted from the tissue samples using ISOGEN reagent (NIPPON GENE, Toyama, Japan). Complementary DNA (cDNA) was synthesized using the Thermo Script RT-PCR System (Invitrogen, Carlsbad, CA). Relative gene-copy numbers for IL-8 mRNA and glyceraldehyde-3-phosphate dehydrogenase (GAPDH) were determined by real-time RT-PCR using TaqMan Gene Expression Assays (IL-8: Hs00174103_m1; GAPDH: 4352934). Absolute gene-copy numbers were normalized to GAPDH using a standard curve.
(Real-time PCR tracks product formation cycle by cycle.)

In data set [2] the test system is E. coli (ATCC25922). As to the kind of experiment: microbe, parasite or virus in culture. It is filed as cell-based, Escherichia coli. The note with it: for MIC E. coli (ATCC25922): ATCC25922, 48 h; for MIC: Escherichia coli, ATCC25922, broth microdilution, 37°C, 24 or 48 hours, individual data from two independent experiments. (In broth dilution the organism is exposed to a series of concentrations in liquid medium.)
Method: (§1) Antimicrobial activity of the peptides was evaluated against Escherichia coli JCM 5491, Pseudomonas aeruginosa JCM 6119, Staphylococcus aureus JCM2874, Salmonella Typhimurium JCM1652, Acinetobacter baumannii JCM6841, Bacteroides fragilis JCM11019, Fusobacterium nucleatum JCM11025, Penicillium glabrum JCM22534, Fusarium solani JCM11383, Alternaria alternata JCM5800 (RIKEN, A research institution for basic and applied science in Japan), Micrococcus luteus NBRC13867, Bacillus subtilis NBRC3134, Propionibacterium acnes NBRC107605, Trichophyton mentagrophytes NBRC6124, Trichophyton rubrum NBRC9185, Candida krusei NBRC1395 (National Institute of Technology and Evaluation, Tokyo, Japan), Salmonella Enteritidis IID604 (The Institute of Medical Science, The University of Tokyo, Tokyo, Japan). Additionally, the clinical isolates (Drug-sensitive/resistant Pseudomonas aeruginosa and Staphylococcus aureus, Osaka University Hospital) and multidrug-resistant Acinetobacter baumannii (ATCC BAA-1605) were used. […] Serial two-fold dilutions of peptide were added to 0.1 ml of medium containing each type of bacteria and fungi at concentrations of 0.4×10^4 – 5×10^4 CFU/ml. The plates were incubated at 37°C with vigorous shaking for 24 or 48 hours. The MICs were determined as the lowest concentrations of peptide that inhibited visible bacterial growth.

The conditions of data set [3]: peptide 500 μg/ml, 37°C, 3 or 10 minutes, acetonitrile/0.1% trifluoroacetate precipitation, HPLC, N = 2 (Fig. 1E). The method, then:
In vitro stability studies were performed by incubating the peptide with rat or human serum. Human sera (Pool of donors, 5 men and 5 women) were commercially purchased from KAC (Kyoto, Japan), which has been permitted only for experiment. We don't use the human biological specimens without the documented informed consent. Rat sera were collected from rats. The peptide (500 μg/ml) was added to serum (300 μL) and incubated at 37°C. A part of samples (90 μL) were taken, and the proteins were precipitated with acetonitrile containing 0.1% trifluoroacetate (200 μL). The precipitate was separated by centrifugation. The supernatants were analyzed by high-performance liquid chromatography (HPLC).

Data set [4] relates to NHDFs. As to the kind of experiment: NHDFs proliferation, WST-1 assay. The following applies: preincubation with Akt inhibitor IV 1 μM (1 hour) or rapamycin 1 nM (2 hours), then SR-0379. It is filed as cell-based, human. The method, then: HUVECs, NHDFs and NHEKs were purchased from Kurabo (Osaka, Japan). The endothelial cells were maintained in HuMedia EB2 and the fibroblasts were maintained in Medium 106S. Both media were supplemented with 1% fetal bovine serum (FBS) as described previously. The epidermal keratinocytes were maintained in HuMedia KB2. Cells were incubated at 37°C in a humidified atmosphere of 95% air/5% CO2 with exchange of medium every 2 days. HUVECs were cultured in 96-well plates at a density of 10,000 cells/well and incubated for 48 hours at 37°C with AG30/5C or FGF2 (recombinant human FGF basic, R&D systems, Inc., Minneapolis, MN). The proliferation of HUVECs, NHDFs and NHEKs was analyzed using a WST-1 assay (Dojindo, Kumamoto, Japan). Tubule formation assay has recently been developed in which endothelial cells are co-cultured with fibroblasts. […] The tube-like structures were measured in terms of total tube length with the software (Angiogenesis Image Analyzer, Kurabo, Osaka Japan). Cell migration was evaluated using an Oris cell migration assay kit (Platypus Technologies, LLC., Madison, WI) according to the manufacturer's instructions. […] The number of cells that migrated into the detection zone was measured using a plate reader. […] At each time point, the lattices were digitally photographed from a fixed distance, and their areas were calculated using image analysis software. […]
(In general: Tetrazolium dyes change colour on reduction, which living cells bring about.)

The subject of data set [5] is bacteria. Briefly: Antimicrobial spectrum, bacteria. The data set is classed as cell-based.
Method: (§2) Antimicrobial activity of the peptides was evaluated against Escherichia coli JCM 5491, Pseudomonas aeruginosa JCM 6119, Staphylococcus aureus JCM2874, Salmonella Typhimurium JCM1652, Acinetobacter baumannii JCM6841, Bacteroides fragilis JCM11019, Fusobacterium nucleatum JCM11025, Penicillium glabrum JCM22534, Fusarium solani JCM11383, Alternaria alternata JCM5800 (RIKEN, A research institution for basic and applied science in Japan), Micrococcus luteus NBRC13867, Bacillus subtilis NBRC3134, Propionibacterium acnes NBRC107605, Trichophyton mentagrophytes NBRC6124, Trichophyton rubrum NBRC9185, Candida krusei NBRC1395 (National Institute of Technology and Evaluation, Tokyo, Japan), Salmonella Enteritidis IID604 (The Institute of Medical Science, The University of Tokyo, Tokyo, Japan). […] Serial two-fold dilutions of peptide were added to 0.1 ml of medium containing each type of bacteria and fungi at concentrations of 0.4×10^4 – 5×10^4 CFU/ml. The plates were incubated at 37°C with vigorous shaking for 24 or 48 hours. The MICs were determined as the lowest concentrations of peptide that inhibited visible bacterial growth.
Data set [6] concerns Candida krusei. Briefly: microbe, parasite or virus in culture. The data set is classed as cell-based. The note with it: Pichia kudriavzevii; fungus; broth microdilution; individual data from two independent experiments.
Method: as §1
For data set [7], the system named is Trichophyton rubrum. Briefly: microbe, parasite or virus in culture. It is filed as cell-based. The note with it: Trichophyton rubrum; fungus; broth microdilution; individual data from two independent experiments.
Method: as §1
The test system of data set [8] is Alternaria alternata. As to the kind of experiment: microbe, parasite or virus in culture. The following applies: Alternaria alternata; fungus; broth microdilution; individual data from two independent experiments. The data set is classed as cell-based.
Method: as §1
For data set [9], the system named is Penicillium glabrum. Briefly: MIC, broth microdilution. It is filed as cell-based. The following applies: fungus, individual data from two independent experiments.
Method: as §2
The subject of data set [10] is Trichophyton mentagrophytes. Briefly: microbe, parasite or virus in culture. It is filed as cell-based. The note with it: Trichophyton mentagrophytes; fungus; broth microdilution; individual data from two independent experiments.
Method: as §1
Data set [11] has as its system Fusarium solani. Briefly: microbe, parasite or virus in culture. It is filed as cell-based. The note with it: Fusarium solani; fungus; broth microdilution; individual data from two independent experiments.
Method: as §1
Data set [12] concerns P. aeruginosa (ATCC27853). As to the kind of experiment: MIC, broth microdilution. It is filed as cell-based, Pseudomonas aeruginosa. Also noted: MIC P. aeruginosa (ATCC27853): unit not given beside the values. The note with it: 24 or 48 hours, individual data from two independent experiments.
The test system of data set [13] is S. aureus (ATCC29213). As to the kind of experiment: microbe, parasite or virus in culture. The data set is classed as cell-based, Staphylococcus aureus. The following applies: broth microdilution, 37°C, 24 or 48 hours, individual data from two independent experiments; for MIC: Staphylococcus aureus, ATCC29213.
Method: as §1
For data set [14] the following is noted: pooled rat serum, 37°C, 10 and 60 minutes, MALDI-TOF MS; major metabolites 20 aa, 18 aa, 17 aa and 12 aa.
Method: Rat sera were collected from rats. […] Samples were collected before incubation, after 10 minutes of incubation and after 60 minutes of incubation and were precipitated by the addition of an equivalent amount of acetonitrile containing 0.1% trifluoroacetate. The samples were centrifuged, and the supernatants were purified using ZipTip m-C18 (Millipore, MA). Sample solution was mixed with matrix solution (α-cyano 4-hydroxy cinnamic acid).
For data set [15], the target named is T1, P2X7 (Homo sapiens, UniProt Q99572).
T1 construct: we also examined the contribution of P2X7 receptors to the effect of SR-0379; endogenous in cells; probably NHDFs (human dermal fibroblasts, Kurabo)
Briefly: Contribution of P2X7 receptors to the effect of SR-0379. It is filed as cell-based. The following applies: data not shown.

Data set [16] is described as follows: pooled rat serum. The following applies: 37°C, up to 60 minutes.
The test system of data set [17] is Fusobacterium nucleatum. Briefly: MIC, broth microdilution. It is filed as cell-based. The following applies: anaerobe, individual data from two independent experiments.
Method: as §2
The test system of data set [18] is Acinetobacter baumannii. The data set is classed as cell-based. The note with it: aerobe; broth microdilution; individual data from two independent experiments.
Method: as §2
The subject of data set [19] is fungi. Briefly: Antimicrobial spectrum, fungi. It is filed as cell-based.
Method: as §2
For data set [20], the system named is Salmonella Enteritidis. Briefly: microbe, parasite or virus in culture. It is filed as cell-based. The note with it: Salmonella enterica, ENTERITIDIS; aerobe; broth microdilution; individual data from two independent experiments.
Method: as §2
In data set [21] the test system is Salmonella Typhimurium. As to the kind of experiment: microbe, parasite or virus in culture. It is filed as cell-based. The note with it: Salmonella enterica, TYPHIMURIUM; aerobe; broth microdilution; individual data from two independent experiments.
Method: as §2
The test system of data set [22] is Bacteroides fragilis. Briefly: microbe, parasite or virus in culture. The data set is classed as cell-based. The following applies: Bacteroides fragilis; anaerobe; broth microdilution; individual data from two independent experiments.
Method: as §1
The subject of data set [23] is Micrococcus luteus. Briefly: microbe, parasite or virus in culture. The note with it: Micrococcus luteus; aerobe; broth microdilution; individual data from two independent experiments. The data set is classed as cell-based.
Method: as §1
Data set [24] deals with Bacillus subtilis. Briefly: microbe, parasite or virus in culture. It is filed as cell-based. The following applies: Bacillus subtilis; aerobe; broth microdilution; individual data from two independent experiments.
Method: as §2

≈ marks a conversion by molar mass, not a printed value. Entries after “also recorded” stand apart in the source; their conditions may differ. Ends that are not written are not given here.

T1 sequence (Q99572 whole entry): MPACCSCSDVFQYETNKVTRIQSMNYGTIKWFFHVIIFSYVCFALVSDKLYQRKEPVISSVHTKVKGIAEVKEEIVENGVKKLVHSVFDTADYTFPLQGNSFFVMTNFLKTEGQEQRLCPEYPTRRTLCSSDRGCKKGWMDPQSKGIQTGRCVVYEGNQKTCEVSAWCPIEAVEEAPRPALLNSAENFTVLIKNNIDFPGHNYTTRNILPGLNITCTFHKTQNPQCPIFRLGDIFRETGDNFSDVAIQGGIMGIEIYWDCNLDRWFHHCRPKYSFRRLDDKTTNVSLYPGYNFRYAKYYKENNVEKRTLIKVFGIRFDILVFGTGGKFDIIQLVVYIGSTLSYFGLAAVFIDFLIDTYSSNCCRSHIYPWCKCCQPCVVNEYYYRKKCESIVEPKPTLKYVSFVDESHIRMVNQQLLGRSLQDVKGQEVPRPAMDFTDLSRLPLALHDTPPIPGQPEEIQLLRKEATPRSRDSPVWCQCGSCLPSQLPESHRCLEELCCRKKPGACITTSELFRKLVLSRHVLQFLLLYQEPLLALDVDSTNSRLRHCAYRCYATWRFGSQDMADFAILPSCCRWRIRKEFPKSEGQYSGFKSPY

As for `COC[C@H]1OC(=O)c2coc3c2[C@@]1(C)C1=C(C3=O)[C@@H]2CCC(=O)[C@@]2(C)C[C@H]1OC(C)=O` [Wortmannin], in [1], the “Effect of pretreatment on SR-0379-induced IL-8 mRNA expression” value is “attenuated”.

As to MLKLIFLHRLKRMRKRLKRK [SR-0007], in [2], the “MIC E. coli (ATCC25922)” value turned out to be 64 µg/mL. In addition, the “Stability in human serum” value in data set [3] (human serum (pool of 5 men and 5 women) 300 μL) is “rapidly degraded”. Also, the “Stability in rat serum” value in data set [3] (rat serum 300 μL) is “rapidly degraded”.

Take `CC[n+]1c(/C=C/N(C)c2ccccc2)n(-c2ccccc2)c2ccc(-c3nc4ccccc4s3)cc21.[I-]` [Akt inhibitor IV]: the “Effect on SR-0379-induced cell proliferation” value in [4] is reported as “attenuated”.

`C[C@@H]1[C@H](O)[C@@H](C)/C=C/C=C/C=C/C=C/C=C/C=C/C=C/[C@H](O[C@@H]2O[C@H](C)[C@@H](O)[C@H](N)[C@@H]2O)C[C@@H]2O[C@](O)(C[C@@H](O)C[C@@H](O)[C@H](O)CC[C@@H](O)C[C@@H](O)CC(=O)O[C@H]1C)C[C@H](O)[C@H]2C(=O)O` [Amphotericin B, reference compound]: the “Inhibitory activity against bacteria” value in data set [5] was “failed to exhibit an inhibitory activity”. Moreover, the MIC in data set [6] was found to be 2 µg/mL (≈ 2.16 µM); in data set [7], 0.125 µg/mL (≈ 0.135 µM); in data set [8], 1 µg/mL (≈ 1.08 µM); in data set [9] it was 0.125 µg/mL (≈ 0.135 µM); in data set [10], 0.125 µg/mL (≈ 0.135 µM); in data set [11], 1 µg/mL (≈ 1.08 µM).

On to “MLKLIFLHRLKRMRKRLKRKLRLWHRKRYK [AG30/5C]”, for which the “MIC P. aeruginosa (ATCC27853)” value in data set [12] (37°C) was 16/32. Besides, the “MIC S. aureus (ATCC29213)” value in data set [13] is listed as 16/32. Further, the “MIC E. coli (ATCC25922)” value in [2] came to 32 µg/mL. Besides, the “Metabolic stability, cleavage in rat serum” value in data set [14] is “cleaved by endopeptidases and exopeptidase at multiple sites”.

Regarding `C[C@@H](O)[C@H]1C(=O)N2C(C(=O)O)=C(S[C@@H]3CN[C@H](C(=O)N(C)C)C3)[C@H](C)[C@H]12` [Meropenem, reference compound], the MIC was 0.25 to 1 µg/mL (≈ 0.652 to 2.61 µM) in [12] (Pseudomonas aeruginosa, ATCC27853, 37°C); 0.03 to 0.12 µg/mL (≈ 0.0782 to 0.313 µM) in [13]; 0.008 to 0.06 µg/mL (≈ 0.0209 to 0.156 µM) in [2].

Regarding `CO[C@H]1C[C@@H]2CC[C@@H](C)[C@@](O)(O2)C(=O)C(=O)N2CCCC[C@H]2C(=O)O[C@H]([C@H](C)C[C@@H]2CC[C@@H](O)[C@H](OC)C2)CC(=O)[C@H](C)/C=C(\C)[C@@H](O)[C@@H](OC)C(=O)[C@H](C)C[C@H](C)/C=C/C=C/C=C/1C` [Rapamycin], the “Effect on SR-0379-induced cell proliferation” value in data set [4] is recorded as “attenuated”.

Take `CCOc1ccc(Nc2ccc(/C(=C3C=C/C(=[N+](/CC)Cc4cccc(S(=O)(=O)[O-])c4)C=C/3C)c3ccc(N(CC)Cc4cccc(S(=O)(=O)O)c4)cc3C)cc2)cc1` [Brilliant Blue G]: in [15], the “Inhibition of the effects of SR-0379 by P2X7 antagonist” value was “failed to inhibit”.

In the case of MLKLIFLHRLKRMRKRLKRKLRFWHRKRYK, the fragment found entry in data set [16] is “MLKLIFLHRL KRMRKRLKRK (SR-0007), major; also recorded: MLKLIFLHRL KRMRKRLK, major; also recorded: MLKLIFLHRL KRMRKRL, major; also recorded: LHRL KRMRKRLK, major”.

`Cc1onc(-c2ccccc2)c1C(=O)N[C@@H]1C(=O)N2[C@@H]1SC(C)(C)[C@@H]2C(=O)O` [Oxacillin] registered an MIC in [13] of 0.12 to 0.5 µg/mL (≈ 0.299 to 1.25 µM).

Consider `O=C(N[C@H](CO)[C@H](O)c1ccc([N+](=O)[O-])cc1)C(Cl)Cl` [Chloramphenicol, reference compound], for which the MIC in data set [17] was 0.25 µg/mL (≈ 0.774 µM); in [20] it was 4 µg/mL (≈ 12.4 µM); in [21], 4 µg/mL (≈ 12.4 µM); in data set [22], 1 µg/mL (≈ 3.09 µM); in data set [23], 1 µg/mL (≈ 3.09 µM); in data set [24], 4 µg/mL (≈ 12.4 µM). Besides, the “MIC Acinetobacter baumannii” value in data set [18] is 16/32. The “Inhibitory activity against fungi” value in data set [19] is on record as “failed to exhibit an inhibitory activity”.

Consider `NC[C@H]1O[C@H](O[C@H]2[C@H](O)[C@@H](O[C@H]3O[C@H](CO)[C@@H](O)[C@H](N)[C@H]3O)[C@H](N)C[C@@H]2N)[C@H](N)C[C@@H]1O` [Tobramycin, reference compound], for which the MIC in [13] fell in the range of 0.12 to 1 µg/mL (≈ 0.257 to 2.14 µM); in data set [2], 0.25 to 1 µg/mL (≈ 0.535 to 2.14 µM).
